Data published in ChEMBL document CHEMBL3856212, “Synthesis, anti-proliferative and genotoxicity studies of 6-chloro-5-(2-substituted-ethyl)-1,3-dihydro-2H-indol-2-ones and 6-chloro-5-(2-chloroethyl)-3-(alkyl/ary-2-ylidene)indolin-2-ones” (Eur J Med Chem, 2016).

What was measured:
[1] = Cytotoxicity against human NCI-H522 cells assessed as growth inhibition after 48 hrs by SRB assay; format: functional; settings: NCI-H522, 48 h
[2] = Cytotoxicity against human HCC2998 cells assessed as growth inhibition after 48 hrs by SRB assay; format: functional; settings: HCC 2998, 48 h
[3] = Cytotoxicity against human HCT116 cells assessed as growth inhibition after 48 hrs by SRB assay; format: functional; settings: HCT-116, 48 h
[4] = Cytotoxicity against human SF268 cells assessed as growth inhibition after 48 hrs by SRB assay; format: functional; settings: SF-268, 48 h
[5] = Cytotoxicity against human SF295 cells assessed as growth inhibition after 48 hrs by SRB assay; format: functional; settings: SF-295, 48 h
[6] = Cytotoxicity against human SNB75 cells assessed as growth inhibition after 48 hrs by SRB assay; format: functional; settings: SNB-75, 48 h
[7] = Cytotoxicity against human SK-MEL-2 cells assessed as growth inhibition after 48 hrs by SRB assay; format: functional; settings: SK-MEL-2, 48 h
[8] = Cytotoxicity against human SK-MEL-28 cells assessed as growth inhibition after 48 hrs by SRB assay; format: functional; settings: SK-MEL-28, 48 h
[9] = Cytotoxicity against human OVCAR5 cells assessed as growth inhibition after 48 hrs by SRB assay; format: functional; settings: OVCAR-5, 48 h
[10] = Cytotoxicity against human OVCAR8 cells assessed as growth inhibition after 48 hrs by SRB assay; format: functional; settings: OVCAR-8, 48 h
[11] = Cytotoxicity against human 786-0 cells assessed as growth inhibition after 48 hrs by SRB assay; format: functional; settings: 786-0, 48 h
[12] = Cytotoxicity against human ACHN cells assessed as growth inhibition after 48 hrs by SRB assay; format: functional
[13] = Cytotoxicity against human MCF7 cells assessed as growth inhibition after 48 hrs by SRB assay; format: functional; settings: MCF7, 48 h
[14] = Cytotoxicity against human BT549 cells assessed as growth inhibition after 48 hrs by SRB assay; format: functional; settings: BT-549, 48 h
[15] = Cytotoxicity against human A549 cells assessed as assessed as growth inhibition at 10^-5 M after 48 hrs by SRB assay relative to control; format: functional; settings: A549, 48 h, read-out: GI
[16] = Cytotoxicity against human NCI-H460 cells assessed as assessed as growth inhibition at 10^-5 M after 48 hrs by SRB assay relative to control; format: functional; settings: NCI-H460, 48 h, read-out: GI
[17] = Cytotoxicity against human HT-29 cells assessed as assessed as growth inhibition at 10^-5 M after 48 hrs by SRB assay relative to control; format: functional; settings: HT-29, 48 h, read-out: GI
[18] = Cytotoxicity against human U251 cells assessed as assessed as growth inhibition at 10^-5 M after 48 hrs by SRB assay relative to control; format: functional; settings: U-251, 48 h, read-out: GI
[19] = Cytotoxicity against human MALME-3M cells assessed as assessed as growth inhibition at 10^-5 M after 48 hrs by SRB assay relative to control; format: functional; settings: read-out: GI
[20] = Cytotoxicity against human M14 cells assessed as assessed as growth inhibition at 10^-5 M after 48 hrs by SRB assay relative to control; format: functional; settings: M14, 48 h, read-out: GI
[21] = Cytotoxicity against human MDA-MB-435 cells assessed as assessed as growth inhibition at 10^-5 M after 48 hrs by SRB assay relative to control; format: functional; settings: MDA-MB-435, 48 h, read-out: GI
[22] = Cytotoxicity against human SK-MEL-28 cells assessed as assessed as growth inhibition at 10^-5 M after 48 hrs by SRB assay relative to control; format: functional; settings: SK-MEL-28, 48 h, read-out: GI
[23] = Cytotoxicity against human SK-MEL-5 cells assessed as assessed as growth inhibition at 10^-5 M after 48 hrs by SRB assay relative to control; format: functional; settings: SK-MEL-5, 48 h, read-out: GI
[24] = Cytotoxicity against human OVCAR3 cells assessed as assessed as growth inhibition at 10^-5 M after 48 hrs by SRB assay relative to control; format: functional; settings: OVCAR-3, 48 h, read-out: GI
[25] = Cytotoxicity against human OVCAR4 cells assessed as assessed as growth inhibition at 10^-5 M after 48 hrs by SRB assay relative to control; format: functional; settings: OVCAR-4, 48 h, read-out: GI
[26] = Cytotoxicity against human NCI-ADR-RES cells assessed as assessed as growth inhibition at 10^-5 M after 48 hrs by SRB assay relative to control; format: functional; settings: read-out: GI
[27] = Cytotoxicity against human ACHN cells assessed as assessed as growth inhibition at 10^-5 M after 48 hrs by SRB assay relative to control; format: functional; settings: read-out: GI
[28] = Cytotoxicity against human SN12C cells assessed as assessed as growth inhibition at 10^-5 M after 48 hrs by SRB assay relative to control; format: functional; settings: read-out: GI
[29] = Cytotoxicity against human MDA-MB-231 cells assessed as assessed as growth inhibition at 10^-5 M after 48 hrs by SRB assay relative to control; format: functional; settings: MDA-MB-231, 48 h, read-out: GI
[30] = Cytotoxicity against human T47D cells assessed as assessed as growth inhibition at 10^-5 M after 48 hrs by SRB assay relative to control; format: functional; settings: read-out: GI
Mus musculus [31] = species: Mus musculus; assay: Genotoxicity in mouse EAC cells at 250 uM after 24 hrs by micronucleus assay (reference value: 3.5 +/- 0.30%); format: toxicity, cell-based; settings: ehrlich
Mus musculus [32] = species: Mus musculus; assay: Genotoxicity in mouse EAC cells at 500 uM after 24 hrs by micronucleus assay (reference value: 3.5 +/- 0.30%); format: toxicity, cell-based; settings: ehrlich
[33] = Induction of apoptosis in mouse EAC cells at 250 uM after 24 hrs by acridine orange dye-based fluorescence microscopy (reference value: 0.66 +/- 0.33%); format: cell-based; settings: ehrlich
[34] = Induction of apoptosis in mouse EAC cells at 500 uM after 24 hrs by acridine orange dye-based fluorescence microscopy (reference value: 0.66 +/- 0.33%); format: cell-based; settings: ehrlich
[35] = Cytotoxicity against human NCI-H322M cells assessed as assessed as growth inhibition at 10^-5 M after 48 hrs by SRB assay relative to control; format: functional; settings: read-out: GI
[36] = read-out: LD50 (the source's name)

Compound: O=C1Cc2cc(CCn3cncn3)c(Cl)cc2N1
- GI50 [1]: 5.29 µM
- TGI [1]: > 1 µM
- CC50 [1, 36]: > 1 µM
- GI50 [2]: 1 µM
- TGI [2]: > 1 µM
- CC50 [2, 36]: > 1 µM
- GI50 [3]: 3.2 µM
- TGI [3]: > 1 µM
- CC50 [3, 36]: > 1 µM
- GI50 [4]: 5.96 µM
- TGI [4]: > 1 µM
- CC50 [4, 36]: > 1 µM
- GI50 [5]: 3.71 µM
- TGI [5]: > 1 µM
- CC50 [5, 36]: > 1 µM
- GI50 [6]: 1.32 µM
- TGI [6]: > 1 µM
- CC50 [6, 36]: > 1 µM
- GI50 [7]: 1.24 µM
- TGI [7]: > 1 µM
- CC50 [7, 36]: > 1 µM
- GI50 [8]: 2.1 µM
- TGI [8]: > 1 µM
- CC50 [8, 36]: > 1 µM
- GI50 [9]: 1 µM
- TGI [9]: > 1 µM
- CC50 [9, 36]: > 1 µM
- GI50 [10]: 6.94 µM
- TGI [10]: > 1 µM
- CC50 [10, 36]: > 1 µM
- GI50 [11]: 1 µM
- TGI [11]: > 1 µM
- CC50 [11, 36]: > 1 µM
- GI50 [12]: 1 µM
- TGI [12]: > 1 µM
- CC50 [12, 36]: > 1 µM
- GI50 [13]: 4.02 µM
- TGI [13]: > 1 µM
- CC50 [13, 36]: > 1 µM
- GI50 [14]: 8.72 µM
- TGI [14]: > 1 µM
- CC50 [14, 36]: > 1 µM
- inhibition of growth at 10 µM [15]: 40.2%
- inhibition of growth at 10 µM [16]: 16.1%
- inhibition of growth at 10 µM [17]: 2.85%
- inhibition of growth at 10 µM [18]: 26.6%
- inhibition of growth at 10 µM [19]: 6.24%
- inhibition of growth at 10 µM [20]: 76%
- inhibition of growth at 10 µM [21]: 65.6%
- inhibition of growth at 10 µM [22]: 32.8%
- inhibition of growth at 10 µM [23]: 59.9%
- inhibition of growth at 10 µM [24]: 28.3%
- inhibition of growth at 10 µM [25]: 13.2%
- inhibition of growth at 10 µM [26]: 47.1%
- inhibition of growth at 10 µM [27]: 25.4%
- inhibition of growth at 10 µM [28]: 44.2%
- inhibition of growth at 10 µM [29]: 44%
- inhibition of growth at 10 µM [30]: 0.92%
- Activity (Mus musculus [31]): 3.5%
- Activity (Mus musculus [32]): 5.23%
- Activity [33]: 0.63%
- Activity [34]: 0.36%
- inhibition of growth at 10 µM [35]: 7.87%
